Values of other authors, collected in article PMC9184245 (Journal of Pesticide Science, 2022).

What was measured:
[1] = measured value from experimental database; ref EPI Suite ver. 4.11
[2] = measured value; ref REACH registered substances database
fish = settings: biomagnification factor, corrected by lipid content and growth rate

Water solubility [2] | Structure (SMILES) | log Kow [1] | Bioaccumulation potential, BMF (fish)
 | c1ccc(-c2ccccc2-c2ccccc2)cc1 [Compound 2, o-Terphenyl] | 5.52^a^) | 
<0.1^c^) mg/L | CC(C)(C)c1cc(CCC(=O)OCC(COC(=O)CCc2cc(C(C)(C)C)c(O)c(C(C)(C)C)c2)(COC(=O)CCc2cc(C(C)(C)C)c(O)c(C(C)(C)C)c2)COC(=O)CCc2cc(C(C)(C)C)c(O)c(C(C)(C)C)c2)cc(C(C)(C)C)c1O [Compound 9, Pentaerythritol tetrakis[3-(3,5-di-tert-butyl-4-hydroxyphenyl)propionate]] |  | 
 | c1ccc2c(c1)ccc1ccccc12 [Compound 1, Phenanthrene] | 4.46^a^) | 
 | COc1ccc(C(c2ccc(OC)cc2)C(Cl)(Cl)Cl)cc1 [Compound 4, Methoxychlor] | 5.08^a^) | 
 | O=[N+]([O-])c1ccc(Oc2ccc(Cl)cc2Cl)cc1 [Compound 3, Nitrofen] | 4.64^a^) | BMF^d^)=0.179[4])
